Laboratory results taken from patent US7994222B2, “Monitoring of the inhibition of fatty acid synthesis by iodo-nitrobenzamide compounds” (BiPar Sciences, Inc., priority 2006, dated 2011).
Entries after “also recorded” stand apart in the source; their conditions may differ.

Assays:
glycogen phosphorylase = settings: in the presence or absence of glucose; human cells; cited from earlier work
OVCAR-3 cells = assay: Metabolic flux profiling with [1,2-13C2]-D-glucose tracer in cultured OVCAR-3 cells (GC/MS, MIDA); format: cell-based, human
Description: (§1) Goal: This study relates to analyzing the effect of the 3-nitro-4-iodobenzamide (compound of formula III) in vitro on cultured OVCAR-3 cells' and HeLa cells' metabolic fluxes using [1,2-^13C2]-D-glucose as the only source of glucose. The analysis includes correlating fluxes with cell growth-modifying effect, analyzing mechanism of anti-proliferative action and analyzing potential toxicity, selectivity, and efficacy. Target metabolites include glucose (culture medium and pellet glycogen), lactate (culture medium), ^13CO2 (culture medium), C:14 (myristate); C:16 (palmitate); C:18 (stearate); C:18-1 (oleate); C:20; C:22; C:24 (cell pellet), acetyl-CoA synthesis for fatty acids (cell pellet), and RNA ribose and DNA deoxyribose (cell pellet). Target fluxes include glucose uptake from culture media; lactate production from glucose (anaerobic glycolysis); ^13CO2 release from glucose via TCA cycle; glycogen synthesis; de novo fatty acid synthesis, elongation, desaturation and acetyl-CoA synthesis; and pentose cycle-RNA and DNA ribose synthesis via oxidative and non-oxidative reactions.
(§2) Materials & Methods: The tracer for this metabolic profiling study, stable isotope [1, 2-^13C2]-D-glucose, is purchased with >99% purity and 99% isotope enrichment for each position from Cambridge Isotope Laboratories, Inc. (Andover, Mass.).
(§3) Cells & cell culture: OVCAR3 and Hela cells are purchased from American Type Culture Collection (ATCC). The cells are cultured according to instructions obtained from ATCC. The cells are incubated at 37° C., 5% CO2 and 95% humidity and passed by using trypsin 0.25% (Gibco/BRL) no more than ten times after receipt from the ATCC and prior to use in this study.
(§4) Seventy-five percent confluent cultures cells are incubated in [1,2-^13C2]D-glucose-containing media (100 mg/dl total concentration=5 mM; 50% isotope enrichment—i.e. half unlabeled glucose, half labeled with the stable isotope ^13C tracer). […] Control cultures are treated with vehicle only. […] Glucose and lactate levels in the medium are measured using a Cobas Mira chemistry analyzer (Roche Diagnostics, Pleasanton, Calif., USA).
(§5) RNA ribose stable isotope studies: RNA ribose is isolated by acid hydrolysis of cellular RNA after Trizol purification of cell extracts. Total RNA amounts are assessed by spectrophotometric determination, in triplicate cultures. Ribose is derivatized to its aldonitrile acetate form using hydroxylamine in pyridine with acetic anhydride (Supelco, Bellefonte, Pa.) before mass spectral analyses. The ion cluster is monitored around the m/z 256 (carbons 1-5 of ribose) (chemical ionization, CI) and m/z 217 (carbons 3-5 of ribose) and m/z 242 (carbons 1-4 of ribose) (electron impact ionization, EI) to determine molar enrichment and the positional distribution of ^13C in ribose. By convention, the base mass of ^12C-compounds (with their derivatization agents) is given as m0 as measured by mass spectrometry (Boros L G, et al. 2002, Drug Discov. Today 7: 364-372).
(§6) Ribose molecules labeled with a single ^13C atom on the first carbon position (m1) recovered from RNA are used to gauge the ribose fraction produced by direct oxidation of glucose through the G6PD pathway. Ribose molecules labeled with ^13C on the first two carbon positions (m2) are used to measure the fraction produced by transketolase. Doubly labeled ribose molecules (m2 and m4) on the fourth and fifth carbon positions are used to measure molar fraction produced by triose phosphate isomerase and transketolase.
(§7) Lactate: Lactate from the cell culture media (0.2 ml) is extracted by ethylene chloride after acidification with HCL. Lactate is derivatized to its propylamine-heptafluorobutyrate ester form and the m/z 328 (carbons 1-3 of lactate) (chemical ionization, CI) is monitored for the detection of m1 (recycled lactate through the PC) and m2 (lactate produced by the Embden-Meyerhof-Pamas pathway) for the estimation of pentose cycle activity (Lee W N, et al. 1998, Am J Physiol 274: E843-E851). […]

HeLa cells = assay: Metabolic flux profiling with [1,2-13C2]-D-glucose tracer in cultured HeLa cells (GC/MS, MIDA); format: cell-based, human
Description: as §1, §2, §3, §4, §5, §6, §7

tumor tissue = settings: in vivo; cited from earlier work
cancer cells = cancer cells with highly active fatty acid synthesis; cited from earlier work
[1] = cited from earlier work

## NC(=O)c1ccc(I)c([N+](=O)[O-])c1 [3-nitro-4-iodobenzamide]
Glycogen phosphorylase
  glycogen phosphorylase activity: effectively controls
OVCAR-3 cells
  G6PDH and transketolase fluxes for DNA deoxyribose synthesis: target enzymes; also recorded: inhibits
  Glycogen synthesis and breakdown via the direct pathway: inhibits
  acetyl-CoA contribution from glucose to long chain saturated fatty acids (C:20-C:24): dose-dependent increase
  toxic effects on cell energy production and nucleic acid RNA turnover: no toxic effects
OVCAR-3 cells; 3 and 10 μM, 72 hours, FIGS. 9A and B
  arachidic acid (C:20) synthesis: inhibit
OVCAR-3 cells; 3 and 10 μM, 72 hours, FIGS. 10A and B
  C:22 fatty acid synthesis: inhibit
OVCAR-3 cells; 3 and 10 μM, 72 hours, FIGS. 11A and B
  C:24 fatty acid synthesis: inhibit
OVCAR-3 cells; mechanism of anti-proliferative action
  cell membrane formation via limited de novo long chain (C:20-C:24) fatty acid synthesis: decreases
HeLa cells; HeLa cells
  De novo synthesis of arachidic acid (C:20): spared from the inhibitory action
  Oxidation of glucose into CO2 and ATP production in the TCA cycle: not affected
  acetyl-CoA contribution from glucose to long chain saturated fatty acids (C:20-C:24): dose-dependent increase
  contribution to acetyl-CoA synthesis from glucose (C:14-C:18 fatty acids): low
  substrate (glucose) uptake and activation (phosphorylation): no inhibitory effect
  toxic effects on cell energy production, nucleic acid turnover and glycogen synthesis: no toxic effects
HeLa cells; HeLa cells, dose-responsive
  medium and long chain fatty acid (C:14-C:18) de novo synthesis from glucose: decreased
HeLa cells; HeLa cells, mechanism of anti-proliferative action
  cell membrane formation via limited de novo fatty acid synthesis: decreases
HeLa cells; HeLa cultures
  Acetyl-CoA enrichment/formation from glucose for arachidic acid synthesis: high and increases
HeLa cells; Hela cells, 3 and 10 μM, 13C-labeled myristate at 72 hours, FIGS. 3A and B
  myristate (C:14) synthesis: inhibit
HeLa cells; Hela cells, 3 and 10 μM, 13C-labeled oleate at 72 hours, FIGS. 6A and B
  oleate (C:18-1) synthesis: inhibit
HeLa cells; Hela cells, 3 and 10 μM, 13C-labeled palmitate at 72 hours, FIGS. 4A and B
  palmitate (C:16) synthesis: inhibit
HeLa cells; Hela cells, 3 and 10 μM, 13C-labeled stearate at 72 hours, FIGS. 5A and B
  stearate (C:18) synthesis: inhibit
HeLa cells; Hela cells, 3 and 10 μM, 72 hours, FIGS. 7A and B
  C:22 fatty acid synthesis: inhibit
HeLa cells; Hela cells, 3 and 10 μM, 72 hours, FIGS. 8A and B
  C:24 fatty acid synthesis: inhibit

## C=C1C(=O)OC(CCCCCCCC)C1C(=O)O (stereo not shown) [C75]
Tumor tissue
  anti-tumor activity: anti-tumor activity
  fatty acid synthesis in tumor tissue: inhibition

## C/C=C/C/C=C/CCC(=O)[C@H]1O[C@H]1C(N)=O [cerulenin]
Cancer cells
  effect on cancer cells in vitro: cell death by means of apoptosis
[1]
  in vivo activity: limited in vivo activity
